# From ChEMBL document CHEMBL5120932, “Discovery and Optimization of Seven-Membered Lactam-Based Compounds to Phenocopy the Inhibition of the Aurora Kinase B” (ACS Med Chem Lett, 2022)
# Activity calls are given as the source filed them. No cut-off for these calls is given here.
# What was measured:
# MDA-MB-231 [1] = assay: Cytotoxicity against human MDA-MB-231 cells assessed as reduction in cell viability measured after 6 days by MTT assay; type: functional, cell-based; conditions: time 6.0 day
# HCT-116 [2] = assay: Cytotoxicity against human HCT-116 cells assessed as reduction in cell viability measured after 6 days by MTT assay; type: functional, cell-based; conditions: time 6.0 day
# Calu-6 = assay: Cytotoxicity against human Calu-6 cells assessed as reduction in cell viability measured after 6 days by MTT assay; type: functional, cell-based; conditions: time 6.0 day
# DU-145 [3] = assay: Cytotoxicity against human DU-145 cells assessed as reduction in cell viability measured after 6 days by MTT assay; type: functional, cell-based; conditions: time 6.0 day
# NCI-N87 [4] = assay: Cytotoxicity against human NCI-N87 cells assessed as reduction in cell viability measured after 6 days by MTT assay; type: functional, cell-based; conditions: time 6.0 day
# NCI-H23 [5] = assay: Cytotoxicity against human NCI-H23 cells assessed as reduction in cell viability measured after 6 days by MTT assay; type: functional, cell-based; conditions: time 6.0 day
# NCI-H596 = assay: Cytotoxicity against human NCI-H596 cells assessed as reduction in cell viability measured after 6 days by MTT assay; type: functional, cell-based; conditions: time 6.0 day
# NCI-H460 = assay: Cytotoxicity against human NCI-H460 cells assessed as reduction in cell viability measured after 6 days by MTT assay; type: functional, cell-based; conditions: time 6.0 day
# A549 = assay: Cytotoxicity against human A549 cells assessed as reduction in cell viability measured after 6 days by MTT assay; type: functional, cell-based; conditions: time 6.0 day
# [6] = Induction of mitotic arrest in human RPE cells over expressing H2B-GFP-fused MYC assessed as minimum effective concentration for polyploidy measured after 24 to 72 hrs by fluorescence microscopy; type: functional; conditions: time 24-72 hrs, read-out: MEC
# [7] = Induction of mitotic arrest in human RPE cells over expressing H2B-GFP-fused MYC assessed as increase in polyploidy at 40 uM measured after 24 to 72 hrs by fluorescence microscopy; type: functional; conditions: time 24-72 hrs
# HCT-116 [8] = assay: Cytotoxicity against human HCT-116 cells assessed as reduction in cell proliferation at 10 uM measured after 3 days by MTT assay; type: functional, cell-based; conditions: time 3.0 day
# NCI-N87 [9] = assay: Cytotoxicity against human NCI-N87 cells assessed as reduction in cell proliferation at 10 uM measured after 3 days by MTT assay; type: functional, cell-based; conditions: time 3.0 day
# DU-145 [10] = assay: Cytotoxicity against human DU-145 cells assessed as reduction in cell proliferation at 10 uM measured after 3 days by MTT assay; type: functional, cell-based; conditions: time 3.0 day
# NCI-H23 [11] = assay: Cytotoxicity against human NCI-H23 cells assessed as reduction in cell proliferation at 10 uM measured after 3 days by MTT assay; type: functional, cell-based; conditions: time 3.0 day
# MDA-MB-231 [12] = assay: Cytotoxicity against human MDA-MB-231 cells assessed as reduction in cell proliferation at 10 uM measured after 3 days by MTT assay; type: functional, cell-based; conditions: time 3.0 day
# [13] = molecular target: T1, Aurora kinase A (Homo sapiens) (UniProt O14965); assay: Inhibition of AURKA in human RPE cells over expressing H2B-GFP-fused MYC assessed as reduction in autophosphorylation at Thr288 residues at 0.64 uM measured after 6 hrs by immunofluorescence assay; type: cell-based
# T1 sequence (whole entry): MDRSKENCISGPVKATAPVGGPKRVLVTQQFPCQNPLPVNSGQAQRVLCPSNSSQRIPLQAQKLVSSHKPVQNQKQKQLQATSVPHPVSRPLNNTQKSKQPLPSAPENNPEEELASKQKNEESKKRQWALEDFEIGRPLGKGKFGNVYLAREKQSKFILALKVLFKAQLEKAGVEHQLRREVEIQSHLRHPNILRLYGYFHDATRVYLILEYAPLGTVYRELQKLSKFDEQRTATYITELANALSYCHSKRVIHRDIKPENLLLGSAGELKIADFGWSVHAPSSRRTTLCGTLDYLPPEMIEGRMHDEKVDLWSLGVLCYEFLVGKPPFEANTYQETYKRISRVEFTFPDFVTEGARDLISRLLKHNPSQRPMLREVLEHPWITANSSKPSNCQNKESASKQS
# [14] = molecular target: Aurora kinase B (Homo sapiens) (UniProt Q96GD4); assay: Inhibition of AURKB in human RPE cells over expressing H2B-GFP-fused MYC assessed as reduction in phosphorylation at Ser10 residues at 200 nM using histone H3 as substrate measured after 6 hrs by immunofluorescence assay; type: cell-based
# Aurora kinase B (Homo sapiens), sequence (Q96GD4 whole entry, the tested form may be a part): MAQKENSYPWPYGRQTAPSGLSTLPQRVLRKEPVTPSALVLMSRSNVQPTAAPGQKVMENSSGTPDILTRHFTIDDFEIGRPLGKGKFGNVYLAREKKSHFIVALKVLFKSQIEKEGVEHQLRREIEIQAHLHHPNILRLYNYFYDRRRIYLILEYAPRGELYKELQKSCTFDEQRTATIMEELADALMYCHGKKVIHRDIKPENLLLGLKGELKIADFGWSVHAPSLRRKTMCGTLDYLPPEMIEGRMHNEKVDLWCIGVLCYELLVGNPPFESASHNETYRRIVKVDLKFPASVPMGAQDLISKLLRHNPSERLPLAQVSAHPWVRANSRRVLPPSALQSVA
smiles,measurement,setting,value
Cc1cc(Nc2cc(N3CCN(C)CC3)nc(Sc3ccc(NC(=O)C4CC4)cc3)n2)n[nH]1,Activity,MDA-MB-231 [1],Active
same,Activity,HCT-116 [2],Active
same,Activity,Calu-6,Active
same,Activity,DU-145 [3],Active
same,Activity,NCI-N87 [4],Active
same,Activity,NCI-H23 [5],Active
same,Activity,NCI-H596,Active
same,Activity,NCI-H460,Active
same,Activity,A549,Active
COC(=O)C1=C(O)c2ccccc2N(Cc2cccc(OC)c2)C(=O)C1,minimal effective concentration,[6],20 µM
same,Activity,[7],20%
COC(=O)C1=C(O)c2ccccc2N(Cc2ccc(C(C)(C)C)cc2)C(=O)C1,minimal effective concentration,[6],40 µM
same,Activity,[7],5%
COC(=O)C1=C(O)c2ccccc2N(Cc2cccc(F)c2)C(=O)C1,minimal effective concentration,[6],40 µM
same,Activity,[7],40%
COC(=O)C1=C(O)c2cc(F)ccc2N(Cc2ccc(C)c(F)c2)C(=O)C1,minimal effective concentration,[6],0.078 µM
same,Activity,[7],40%
COC(=O)C1=C(O)c2ccccc2N(Cc2cccc(C)c2)C(=O)C1,minimal effective concentration,[6],40 µM
same,Activity,[7],10%
COC(=O)C1=C(O)c2scc(C)c2N(Cc2ccc(C)c(F)c2)C(=O)C1,Activity,HCT-116 [8],Active
same,Activity,NCI-N87 [9],Active
same,Activity,DU-145 [10],Active
same,minimal effective concentration,[6],0.312 µM
same,Activity,NCI-H23 [11],Active
same,Activity,MDA-MB-231 [12],Active
same,Activity,[7],100%
COC(=O)C1=C(O)c2ccccc2N(Cc2ccc(C)c(F)c2)C(=O)C1,Activity,MDA-MB-231 [1],Active
same,Activity,HCT-116 [8],Active
same,Activity,NCI-N87 [9],Active
same,Activity,DU-145 [10],Active
same,Activity,HCT-116 [2],Active
same,minimal effective concentration,[6],0.019 µM
same,Activity,Calu-6,Active
same,Activity,NCI-H23 [11],Active
same,Activity,DU-145 [3],Active
same,Activity,NCI-N87 [4],Active
same,Activity,NCI-H23 [5],Active
same,Activity,NCI-H596,Active
same,Activity,MDA-MB-231 [12],Active
same,Activity,[7],30%
same,Activity,NCI-H460,Active
same,Activity,A549,Active
COC(=O)C1=C(O)c2ccccc2N(Cc2ccc(OC)c(F)c2)C(=O)C1,Activity,MDA-MB-231 [1],Active
same,Activity,HCT-116 [8],Active
same,Activity,NCI-N87 [9],Active
same,Activity,DU-145 [10],Active
same,Activity,HCT-116 [2],Active
same,minimal effective concentration,[6],0.039 µM
same,Activity,Calu-6,Active
same,Activity,NCI-H23 [11],Active
same,Activity,DU-145 [3],Active
same,Activity,NCI-N87 [4],Active
same,Activity,NCI-H23 [5],Active
same,inhibition,[13],Active
same,Activity,NCI-H596,Active
same,Activity,MDA-MB-231 [12],Active
same,Activity,[7],70%
same,Activity,NCI-H460,Active
same,Activity,A549,Active
COC(=O)C1=C(O)c2cc(OC)c(OC)cc2N(Cc2ccc(C)c(F)c2)C(=O)C1,minimal effective concentration,[6],0.312 µM
same,Activity,[7],90%
CCN(CCO)CCCOc1ccc2c(Nc3cc(CC(=O)Nc4cccc(F)c4)[nH]n3)ncnc2c1,inhibition,[14],Active
COC(=O)C1=C(O)c2ccccc2N(Cc2ccc(C(F)(F)F)cc2)C(=O)C1,minimal effective concentration,[6],10 µM
same,Activity,[7],30%
CC[C@@H]1C(=O)N(C)c2cnc(Nc3ccc(C(=O)NC4CCN(C)CC4)cc3OC)nc2N1C1CCCC1,Activity,MDA-MB-231 [1],Active
same,Activity,HCT-116 [2],Active
same,Activity,Calu-6,Active
same,Activity,DU-145 [3],Active
same,Activity,NCI-N87 [4],Active
same,Activity,NCI-H23 [5],Active
same,Activity,NCI-H596,Active
same,Activity,NCI-H460,Active
same,Activity,A549,Active
COC(=O)C1=C(O)c2ccccc2N(Cc2ccc(C)c(Cl)c2)C(=O)C1,minimal effective concentration,[6],5 µM
same,Activity,[7],100%
